Experimental data taken from ChEMBL document CHEMBL4219085, “Discovery of isatin and 1H-indazol-3-ol derivatives as d-amino acid oxidase (DAAO) inhibitors” (Bioorg Med Chem, 2018).

What was measured:
D-amino-acid oxidase [1] = biological target: T1, D-amino-acid oxidase (Homo sapiens, UniProt P14920); assay: Inhibition of human DAAO at 20 uM using D-KYN as substrate preincubated for 20 mins followed by substrate addition measured after 30 mins by FP-6300-based fluorescence spectrometry
Target sequence in this assay (P14920 whole entry, looked up): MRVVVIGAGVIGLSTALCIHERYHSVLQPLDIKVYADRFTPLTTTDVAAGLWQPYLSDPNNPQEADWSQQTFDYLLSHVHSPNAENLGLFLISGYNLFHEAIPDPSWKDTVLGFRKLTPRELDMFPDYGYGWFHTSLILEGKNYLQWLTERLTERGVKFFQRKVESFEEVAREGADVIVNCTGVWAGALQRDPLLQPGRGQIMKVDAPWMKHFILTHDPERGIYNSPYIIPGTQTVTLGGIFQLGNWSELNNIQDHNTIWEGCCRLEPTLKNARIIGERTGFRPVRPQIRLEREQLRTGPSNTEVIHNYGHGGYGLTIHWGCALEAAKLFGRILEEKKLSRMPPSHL

[2] = Dissociation constant, pKa of the compound by UV-spectrophotometric titration method; type: physicochemical
D-amino-acid oxidase [3] = biological target: T1, D-amino-acid oxidase; assay: Inhibition of human DAAO using D-KYN as substrate preincubated for 20 mins followed by substrate addition measured after 30 mins by FP-6300-based fluorescence spectrometry
Target sequence in this assay (P14920 whole entry): as the sequence (P14920 whole entry, looked up) above

D-amino-acid oxidase [4] = biological target: D-amino-acid oxidase (Sus scrofa, UniProt P00371); assay: Binding affinity to pig kidney DAAO by ITC method
[5] = Effective permeability of the compound after 4 hrs at pH 5.5 to 7.4 by PAMPA; type: ADME; settings: read-out: Peff
[6] = Effective permeability of the compound assessed as membrane retention after 4 hrs at pH 5.5 to 7.4 by PAMPA; type: ADME; settings: pH 5.5, 4 h
[7] = Effective permeability of the compound after 4 hrs at pH 6.5 to 7.4 by PAMPA; type: ADME; settings: read-out: Peff
[8] = Effective permeability of the compound assessed as membrane retention after 4 hrs at pH 6.5 to 7.4 by PAMPA; type: ADME; settings: pH 6.5, 4 h
[9] = Effective permeability of the compound after 4 hrs at pH 7.4 by PAMPA; type: ADME; settings: read-out: Peff
[10] = Effective permeability of the compound assessed as membrane retention after 4 hrs at pH 7.4 by PAMPA; type: ADME; settings: pH 7.4, 4 h
[11] = Elimination half life in NMRI mouse hepatic microsomes at 1 uM up to 90 mins by LC-MS/MS analysis; type: ADME, microsome; settings: liver microsomes, read-out: beta t1/2
[12] = Intrinsic clearance in NMRI mouse hepatic microsomes at 1 uM up to 90 mins by LC-MS/MS analysis; type: ADME, microsome; settings: liver microsomes, read-out: CLH
[13] = Elimination half life in NMRI mouse primary hepatocytes at 1 uM up to 240 mins by LC-MS/MS analysis; type: ADME, cell-based, Hepatocyte; settings: read-out: beta t1/2
[14] = Intrinsic clearance in NMRI mouse primary hepatocytes at 1 uM up to 240 mins by LC-MS/MS analysis; type: ADME, cell-based, Hepatocyte; settings: read-out: CLH
[15] = Elimination half life in human hepatic microsomes at 1 uM up to 90 mins by LC-MS/MS analysis; type: ADME, microsome; settings: liver microsomes, read-out: beta t1/2
[16] = Intrinsic clearance in human hepatic microsomes at 1 uM up to 90 mins by LC-MS/MS analysis; type: ADME, microsome; settings: liver microsomes, read-out: CLH
[17] = Elimination half life in human primary hepatocytes at 1 uM up to 240 mins by LC-MS/MS analysis; type: ADME, cell-based, Hepatocyte; settings: read-out: beta t1/2
[18] = Intrinsic clearance in human primary hepatocytes at 1 uM up to 240 mins by LC-MS/MS analysis; type: ADME, cell-based, Hepatocyte; settings: read-out: CLH
Mus musculus [19] = assay: Anti-schizophrenic activity in NMRI mouse assessed as increase in D-serine levels in blood at 30 mg/kg, ip measured after 10 mins by capillary electrophoresis laser induced fluorescence method; type: functional
Mus musculus [20] = assay: Anti-schizophrenic activity in NMRI mouse assessed as increase in D-serine levels in blood at 30 mg/kg, ip measured after 60 mins by capillary electrophoresis laser induced fluorescence method; type: functional
[21] = Drug level in blood of NMRI mouse assessed at 30 mg/kg, ip co-dosed with 30 mg/kg, ip D-serine measured after 10 mins; type: ADME, organism-based; settings: read-out: Drug uptake
[22] = Drug level in blood of NMRI mouse assessed at 30 mg/kg, ip co-dosed with 30 mg/kg, ip D-serine measured after 60 mins; type: ADME, organism-based; settings: read-out: Drug uptake
D-amino-acid oxidase [23] = biological target: T1, D-amino-acid oxidase; assay: Inhibition of DAAO (unknown origin)
Target sequence in this assay (P14920 whole entry): as the sequence (P14920 whole entry, looked up) above

Sequence of D-amino-acid oxidase (Sus scrofa, UniProt P00371) (P00371 whole entry): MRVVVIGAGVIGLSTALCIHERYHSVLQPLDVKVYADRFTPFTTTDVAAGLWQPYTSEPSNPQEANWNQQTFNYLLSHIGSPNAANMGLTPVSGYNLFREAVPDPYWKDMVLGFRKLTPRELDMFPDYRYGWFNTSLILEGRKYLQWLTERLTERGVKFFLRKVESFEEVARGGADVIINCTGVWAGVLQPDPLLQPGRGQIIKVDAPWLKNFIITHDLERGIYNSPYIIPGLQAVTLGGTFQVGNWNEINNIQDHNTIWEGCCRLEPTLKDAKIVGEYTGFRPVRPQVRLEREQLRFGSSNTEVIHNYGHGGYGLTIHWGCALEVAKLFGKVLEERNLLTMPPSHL

Oc1n[nH]c2cccc(Cl)c12
inhibition (D-amino-acid oxidase [1]): 19% | pKa [2]: 7.51

Oc1n[nH]c2cc(F)ccc12
IC50 (D-amino-acid oxidase [3]): 120 to 123 nM | pKa [2]: 7.84 | Kd (D-amino-acid oxidase [4]): 1000 nM | Papp at 4 h [5]: 1.2 ×10⁻⁶ cm/s | R% [6]: 3.9% | Papp at 4 h [7]: 0.97 ×10⁻⁶ cm/s | R% [8]: 7.1% | Papp at 4 h [9]: 0.72 ×10⁻⁶ cm/s | R% [10]: 5.8% | half-life at […], 1 µM [11]: 1.33 h | CLint scaled at […], 1 µM [12]: 8.29 mL/min/kg | half-life at 1 µM [13]: 2.97 h | CLint scaled at 1 µM [14]: 20 mL/min/kg | half-life at […], 1 µM [15]: 3.04 h | CLint scaled at […], 1 µM [16]: 0.9 mL/min/kg | half-life at 1 µM [17]: 6.86 h | CLint scaled at 1 µM [18]: 2.78 mL/min/kg | Activity (Mus musculus [19]): 33% | Activity (Mus musculus [20]): 27% | concentration at 10 min [21]: 13.1 µM | concentration at 1 h [22]: 0.77 µM

O=c1[nH][nH]c2ccc(Br)cc12
Kd (D-amino-acid oxidase [4]): 3290 nM

Oc1n[nH]c2ccc(Cl)cc12
pKa [2]: 7.53 | Kd (D-amino-acid oxidase [4]): 780 nM

Oc1noc2ccccc12
IC50 (D-amino-acid oxidase [3]): 418 nM | Kd (D-amino-acid oxidase [4]): 440 nM

O=c1[nH][nH]c2ccccc12
pKa [2]: 8.16 | Kd (D-amino-acid oxidase [4]): 4430 nM

Oc1noc2cc(Cl)ccc12
Kd (D-amino-acid oxidase [4]): 870 nM

Cc1cccc2c1NC(=O)C2=O
IC50 (D-amino-acid oxidase [3]): 13100 nM | Kd (D-amino-acid oxidase [4]): 8230 nM

Oc1n[nH]c2ccc(F)cc12
Kd (D-amino-acid oxidase [4]): 1200 nM

O=C1Nc2c(Cl)cccc2C1=O
IC50 (D-amino-acid oxidase [23]): 7870 nM | pKa [2]: 9.44

O=[N+]([O-])c1ccc2c(O)[nH]nc2c1
IC50 (D-amino-acid oxidase [3]): 1200 nM | pKa [2]: 6.52 | Kd (D-amino-acid oxidase [4]): 4590 nM

Oc1n[nH]c2c(Cl)cccc12
IC50 (D-amino-acid oxidase [3]): 10100 nM | pKa [2]: 7.28 | Kd (D-amino-acid oxidase [4]): 3310 nM

Oc1n[nH]c2cc(Cl)ccc12
IC50 (D-amino-acid oxidase [3]): 150 to 156 nM | pKa [2]: 7.59 | Kd (D-amino-acid oxidase [4]): 2000 nM | Papp at 4 h [5]: 9.53 ×10⁻⁶ cm/s | R% [6]: 6.7% | Papp at 4 h [7]: 7.43 ×10⁻⁶ cm/s | R% [8]: 9.7% | Papp at 4 h [9]: 4.47 ×10⁻⁶ cm/s | R% [10]: 2.5% | half-life at […], 1 µM [11]: 0.942 h | CLint scaled at […], 1 µM [12]: 11.7 mL/min/kg | half-life at 1 µM [13]: 0.87 h | CLint scaled at 1 µM [14]: 68.2 mL/min/kg | half-life at […], 1 µM [15]: 3.6 h | CLint scaled at […], 1 µM [16]: 0.76 mL/min/kg | half-life at 1 µM [17]: 7.51 h | CLint scaled at 1 µM [18]: 2.54 mL/min/kg

Oc1n[nH]c2cccc(Br)c12
inhibition (D-amino-acid oxidase [1]): 34% | pKa [2]: 7.51

Oc1cc(CCc2ccccc2)[nH]n1
inhibition (D-amino-acid oxidase [1]): 66%
